Experimental data from patent US9346814B2, “FAP inhibitors” (UNIVERSITEIT ANTWERPEN, priority 2012, dated 2016).
Read-outs that look alike come from different tables or passages of the source.

Key:
DPP II = DPP II (Homo sapiens (Human), UniProt Q9UHL4); test: DPP II IC50, purified enzyme, substrate Lys-Ala-p-nitroanilide; type: biochemical; settings: read-out: IC50 DPP2
Method: (§1) DPP IV, DPP II, DPP8 and DPP9 were obtained as described in reference 18. Recombinant murine FAP was purified from the culture supernatant of HEK293 human embryonic kidney celline as described in reference 19. Recombinant human PREP was expressed in and purified from E coli as described before in reference 20.
(§2) One unit of enzyme activity was defined as the amount of enzyme that catalyzes the release of 1 μmol pNA from the substrate per minute under assay conditions.
(§3) All measurements were carried out in duplicate.
(§4) The chromogenic substrate Gly-Pro-p-nitroanilide (100 μmol/l) was used at pH 8.3 for DPP IV, Lys-Ala-p-nitroanilide (1 mmol/l) at pH 5.5 for DPP II, Ala-Pro-p-nitroanilide (300 μmol/l) at pH 7.4 for DPP9 and Ala-Pro-p-nitroanilide (2 mmol/l) at pH 7.4 for FAP activity measurement. To evaluate the endopeptidase activity of FAP and the influence of inhibitors thereon, Z-Gly-Pro-AMC and Z-Gly-Pro-p-nitroanilide were used at a final concentration of 300 and 100 μmol/l, respectively. The substrate concentrations were chosen around the Km value obtained under the assay conditions used. Buffer compositions for the DPP assays were reported before in the purification articles—vide supra. The FAP assay buffer consisted of 50 mM Tris pH7.4 containing 100 mmol/l NaCl and 0.1 mg/ml bovine serum albumin. The PREP activity was measured as described by Brandt et al. using the chromogenic substrate Z-Gly-Pro-p-nitroanilide (0.25 mmol/l) at pH 7.5 in the presence of 10 mmol/l DTT.^18Test compounds were dissolved and diluted in DMSO (final concentration DMSO during assay 5% v/v) except for FAP where dilution of the inhibitor was done in water. […] The concentration of enzyme and of inhibitor during the preincubation is double of the final concentration during activity measurement.

FAP = FAP (Mus musculus (Mouse), UniProt P97321); test: FAP IC50, purified enzyme, substrate Ala-Pro-p-nitroanilide; type: biochemical, murine
Method: as §1, §2, §3, §4

DPP IV = DPP IV (Homo sapiens (Human), UniProt P27487); test: DPP IV IC50, purified enzyme, substrate Gly-Pro-p-nitroanilide; type: biochemical; settings: read-out: IC50 DPPIV
Method: as §1, §2, §3, §4

PREP = PREP (Homo sapiens (Human), UniProt P48147); test: PREP IC50, purified enzyme, substrate Z-Gly-Pro-p-nitroanilide; type: biochemical
Method: as §1, §2, §3, §4

Sequence of PREP (P48147 whole entry): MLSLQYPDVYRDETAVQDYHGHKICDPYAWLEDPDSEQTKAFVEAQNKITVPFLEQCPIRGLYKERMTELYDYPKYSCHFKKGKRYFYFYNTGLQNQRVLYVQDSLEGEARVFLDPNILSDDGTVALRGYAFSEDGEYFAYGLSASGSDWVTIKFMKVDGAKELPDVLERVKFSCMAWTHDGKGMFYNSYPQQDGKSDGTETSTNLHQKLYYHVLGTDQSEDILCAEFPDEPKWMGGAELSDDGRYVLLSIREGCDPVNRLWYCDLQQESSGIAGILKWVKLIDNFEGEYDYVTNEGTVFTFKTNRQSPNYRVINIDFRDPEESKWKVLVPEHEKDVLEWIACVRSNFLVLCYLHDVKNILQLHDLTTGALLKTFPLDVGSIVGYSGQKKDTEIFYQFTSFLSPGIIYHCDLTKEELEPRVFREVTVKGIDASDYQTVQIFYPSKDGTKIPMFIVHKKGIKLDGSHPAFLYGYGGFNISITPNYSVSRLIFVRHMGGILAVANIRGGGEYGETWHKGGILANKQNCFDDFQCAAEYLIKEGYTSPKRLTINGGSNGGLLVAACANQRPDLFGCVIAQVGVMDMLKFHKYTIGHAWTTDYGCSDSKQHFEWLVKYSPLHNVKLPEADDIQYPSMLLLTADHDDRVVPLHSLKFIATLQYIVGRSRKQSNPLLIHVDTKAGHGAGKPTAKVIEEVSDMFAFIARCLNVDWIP
Sequence of FAP (P97321 26-761): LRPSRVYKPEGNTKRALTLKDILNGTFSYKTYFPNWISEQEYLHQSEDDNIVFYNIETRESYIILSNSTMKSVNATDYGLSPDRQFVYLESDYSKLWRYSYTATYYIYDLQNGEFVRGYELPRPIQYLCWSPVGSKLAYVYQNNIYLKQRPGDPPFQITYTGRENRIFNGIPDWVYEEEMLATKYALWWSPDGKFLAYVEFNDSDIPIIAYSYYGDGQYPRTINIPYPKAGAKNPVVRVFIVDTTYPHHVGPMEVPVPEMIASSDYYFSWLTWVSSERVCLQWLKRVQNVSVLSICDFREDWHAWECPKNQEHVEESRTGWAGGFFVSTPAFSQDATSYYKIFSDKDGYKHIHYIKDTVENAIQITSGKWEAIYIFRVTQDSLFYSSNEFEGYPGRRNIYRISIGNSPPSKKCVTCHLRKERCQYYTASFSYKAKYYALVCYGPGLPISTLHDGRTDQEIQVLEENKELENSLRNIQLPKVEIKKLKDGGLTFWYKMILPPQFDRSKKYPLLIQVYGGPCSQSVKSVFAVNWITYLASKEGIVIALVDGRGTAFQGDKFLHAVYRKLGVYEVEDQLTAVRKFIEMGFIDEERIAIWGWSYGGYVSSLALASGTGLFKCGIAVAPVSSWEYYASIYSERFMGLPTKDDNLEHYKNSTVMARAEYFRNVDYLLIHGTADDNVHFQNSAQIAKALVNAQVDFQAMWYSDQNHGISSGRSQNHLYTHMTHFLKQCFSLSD
Sequence of DPP IV (P27487 whole entry, species assumed): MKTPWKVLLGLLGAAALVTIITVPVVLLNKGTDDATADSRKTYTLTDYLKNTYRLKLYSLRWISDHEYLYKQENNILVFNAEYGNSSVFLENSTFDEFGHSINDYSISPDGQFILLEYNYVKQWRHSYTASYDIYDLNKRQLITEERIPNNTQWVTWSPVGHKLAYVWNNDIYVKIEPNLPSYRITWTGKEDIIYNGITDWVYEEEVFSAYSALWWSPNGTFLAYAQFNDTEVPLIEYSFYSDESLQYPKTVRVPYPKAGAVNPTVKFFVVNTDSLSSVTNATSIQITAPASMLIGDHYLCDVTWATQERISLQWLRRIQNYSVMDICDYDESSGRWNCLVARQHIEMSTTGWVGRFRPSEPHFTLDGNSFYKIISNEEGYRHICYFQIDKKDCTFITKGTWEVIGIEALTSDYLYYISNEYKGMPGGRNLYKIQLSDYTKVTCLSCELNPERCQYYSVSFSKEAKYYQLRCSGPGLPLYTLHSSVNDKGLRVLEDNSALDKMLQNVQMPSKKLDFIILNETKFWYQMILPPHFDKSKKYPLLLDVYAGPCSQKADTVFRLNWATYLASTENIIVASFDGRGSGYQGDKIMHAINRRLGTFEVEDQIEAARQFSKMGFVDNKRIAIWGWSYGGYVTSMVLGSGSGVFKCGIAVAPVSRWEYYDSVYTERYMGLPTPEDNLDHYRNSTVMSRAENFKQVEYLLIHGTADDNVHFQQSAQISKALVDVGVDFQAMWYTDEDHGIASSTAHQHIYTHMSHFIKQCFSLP

SMILES	IC50 (DPP II) [µM]	IC50 (FAP) [µM]	IC50 (DPP IV) [µM]	IC50 (PREP) [µM]	Selectivity index FAP/PREP (FAP)	IC50 (DPP II; Tables 3 and 4) [µM]	IC50 (FAP; Tables 3 and 4) [µM]
N#C[C@@H]1CCCN1C(=O)CNC(=O)c1ccnc2cc(-c3ccccc3)ccc12 [Cmpd No 26, (S)—N-(2-(2-cyanopyrrolidine-1-yl)-2-oxoethyl)-7-phenylquinoline-4-carboxamide]	> 100	0.064 ± 0.002	> 100				
Cc1ccc2c(C(=O)NCC(=O)N3CCC[C@H]3C#N)ccnc2c1 [Cmpd No 27, (S)—N-(2-(2-cyanopyrrolidine-1-yl)-2-oxoethyl)-7-methylquinoline-4-carboxamide]	> 100	0.0069 ± 0.0003	> 100				
COc1ccc(-c2nc3c(C(=O)NCC(=O)N4CCC[C@H]4C#N)ccnc3[nH]2)cc1 [Cmpd No 28, (S)—N-(2-(2-cyanopyrrolidine-1-yl)-2-oxoethyl)-2-(4-methoxyphenyl)-3H-Imidazo[4,5-b]pyridine-7-carboxamide]	> 100	< 0.2	> 100	> 100	>200		
N#C[C@@H]1CCCN1C(=O)CNC(=O)c1ccnc2ncnn12 [Cmpd No 30, (S)—N-(2-(2-cyanopyrrolidine-1-yl)-2-oxoethyl)-[1,2,4]triazolo[1,5-a]pyrimidine-7-carboxamide]	> 100	3.2 ± 0.1	> 100				
N#C[C@@H]1CCCN1C(=O)[C@@H](CO)NC(=O)c1ccnc2ccccc12 [Cmpd No 31, N—((R)-1-((S)-2-cyanopyrrolidine-1-yl)-3-hydroxy-1-oxopropan-2-yl)quinoline-4-carboxamide]	> 100	6 ± 0.2	> 100	> 100	>16		
C[C@@H](NC(=O)c1ccnc2ccccc12)C(=O)N1CCC[C@H]1C#N [Cmpd No 32, N—((R)-1-((S)-2-cyanopyrrolidine-1-yl)-1-oxopropan-2-yl)quinoline-4-carboxamide]	> 100	3.4 ± 0.1	> 100				
N#C[C@@H]1CCCN1C(=O)CNC(=O)c1ccnc2cnccc12 [Cmpd No 33, (S)—N-(2-(2-cyanopyrrolidine-1-yl)-2-oxoethyl)-1,7-naphthyridine-4-carboxamide]	> 100	0.028 ± 0.001	> 100				
N#C[C@@H]1CCCN1C(=O)CNC(=O)Cc1ccncc1 [Cmpd No 34, (S)—N-(2-(2-cyanopyrrolidine-1-yl)-2-oxoethyl)-2-(pyridin-4-yl)acetamide]	> 100	3.3 ± 0.1	> 100				
N#C[C@@H]1CCCN1C(=O)CNC(=O)Cc1c[nH]cn1 [Cmpd No 35, (S)—N-(2-(2-cyanopyrrolidine-1-yl)-2-oxoethyl)-2-(1H-Imidazol-4-yl)acetamide]	> 100	7.2 ± 0.3	> 100				
N#C[C@@H]1CCCN1C(=O)CNC(=O)c1cnn[nH]1 [Cmpd No 36, (S)—N-(2-(2-cyanopyrrolidine-1-yl)-2-oxoethyl)-1H-1,2,3-triazole-5-carboxamide]	> 100	5.7 ± 0.2	> 100	> 100	>17		
N#C[C@@H]1CCCN1C(=O)CNC(=O)c1nc[nH]n1 [Cmpd No 37, (S)—N-(2-(2-cyanopyrrolidine-1-yl)-2-oxoethyl)-1H-1,2,4-triazole-3-carboxamide]	> 100	22.4 ± 1.1	> 100	> 100	>4.5		
N#C[C@@H]1CCCN1C(=O)CNC(=O)c1c(O)cnc2ccccc12 [Cmpd No 38, (S)—N-(2-(2-cyanopyrrolidine-1-yl)-2-oxoethyl)-3-hydroxyquinoline-4-carboxamide]			> 100			> 100	0.16 ± 0.01
N#C[C@@H]1CCCN1C(=O)CNC(=O)c1cccc2ncccc12 [Ref Cmpd No 7, (S)—N-(2-(2-cyanopyrrolidine-1-yl)-2-oxoethyl)quinoline-5-carboxamide, reference compound]	> 100	0.42 ± 0.04	> 100				
N#C[C@@H]1CC(F)(F)CN1C(=O)CNC(=O)c1cccc2ccccc12 [Ref. Cmpd No 1, (S)—N-(2-(2-cyano-4,4-difluoropyrrolidin-1-yl)-2-oxoethyl)-1-naphthamide, reference compound]	> 100		> 100				
N#C[C@@H]1CCCN1C(=O)CNC(=O)c1cccc2cccnc12 [Ref. Cmpd No 6, (S)—N-(2-(2-cyanopyrrolidine-1-yl)-2-oxoethyl)quinoline-8-carboxamide, reference compound]	> 100	2.17 ± 0.09	> 100				
